The source of these data is patent EP0413289B1 (priority 1989, dated 1991).

Structures are written as SMILES. Converted amounts (≈) assume the structure as drawn.

The test system of experiment [1] is panel of fifteen human rhinovirus (HRV) serotypes. The experiment can be described thus: plaque reduction assay, panel of fifteen human rhinovirus serotypes (MIC50/MIC80). The experiment is classed as cell-based. The conditions noted are these: for MIC50: concentration required to inhibit 50% of the tested serotypes, HeLa (Wisconsin) cells, read-out: MIC₅₀ (Rhinovirus); for MIC₈₀ (N) (Rhinovirus): concentration required to inhibit 80% of the tested serotypes, N in parentheses = number of serotypes tested. As to the method:
(§1) The MIC values were determined by a standard plaque reduction assay as follows: HeLa (Wisconsin) cells in monolayers were infected at a concentration of virus to give approximately 80 plaques per monolayer in the virus control (no drug present). The compound to be tested was serially diluted and included in the agar-medium overlay and in some cases, during the adsorption period as well. The MIC was determined to be that concentration of compound which reduced the number of plaques by 50% with respect to the untreated virus control.
(§2) In the standard test procedures, the compounds were tested against a panel of fifteen human rhinovirus (HRV) serotypes, namely HRV-2, -1A, -1B, -6, -14, -21, -22, -15, -25, -30, -50, -67, -89, -86 and -41. The MIC value for each rhinovirus serotype was determined, and the efficacy of each compound was determined in terms of MIC₅₀ and MIC₈₀ values, which is the concentration of the compound required to inhibit 50% and 80%, respectively, of the tested serotypes.
The following Table gives the testing results with the compounds of the invention. For some of the compounds, the MIC₅₀ and MIC₈₀ values are based on the testing of fewer than 15 rhinovirus serotypes. In these cases the number of serotypes (N) is indicated in parentheses after the MIC₈₀ figure.

Experiment [2] concerns Polio 2. In words: microbe, parasite or virus in culture. The experiment is classed as cell-based. The conditions noted are these: HeLa, read-out: MIC (Polio 2).
Experiment [3] has as its system HRV-86. In words: plaque reduction assay, rhinovirus serotype 86. Type of experiment: cell-based, human rhinovirus (HRV). As to conditions: Enterovirus, HRV86, 50% plaque reduction, HeLa (Wisconsin) cells, read-out: MIC. As to the method:
as §1, §2
(§3) The following Table compares the MIC values for the compound of Example 10(c) and the methylated derivative of Example 11(c) against 15 rhinovirus serotypes: […]
For orientation: Plaque reduction counts the foci of infection that form in a cell layer.

In experiment [4] the test system is HRV-25. The experiment can be described thus: plaque reduction assay, rhinovirus serotype 25. Type of experiment: cell-based, human rhinovirus (HRV). The conditions noted are these: Enterovirus, HRV25, 50% plaque reduction, HeLa (Wisconsin) cells, read-out: MIC. As to the method: as §1, §2, §3
The test system of experiment [5] is HRV-1A. The experiment can be described thus: plaque reduction assay, rhinovirus serotype 1A. The experiment is classed as cell-based, human rhinovirus (HRV). The conditions noted are these: 50% plaque reduction, HeLa (Wisconsin) cells, read-out: MIC. Here is the method:
as §1, §2, §3

Experiment [6] relates to HRV-6. The experiment can be described thus: plaque reduction assay, rhinovirus serotype 6. Type of experiment: cell-based, human rhinovirus (HRV). As to conditions: Enterovirus, HRV6, 50% plaque reduction, HeLa (Wisconsin) cells, read-out: MIC. Here is the method: as §1, §2, §3
In experiment [7] the test system is HRV-15. The experiment can be described thus: plaque reduction assay, rhinovirus serotype 15. As to conditions: Enterovirus, HRV15, 50% plaque reduction, HeLa (Wisconsin) cells, read-out: MIC. Type of experiment: cell-based, human rhinovirus (HRV). As to the method: as §1, §2, §3
Experiment [8] concerns HRV-67. The experiment can be described thus: plaque reduction assay, rhinovirus serotype 67. The experiment is classed as cell-based, human rhinovirus (HRV). The conditions noted are these: Enterovirus, HRV67, 50% plaque reduction, HeLa (Wisconsin) cells, read-out: MIC. Here is the method:
as §1, §2, §3

Experiment [9] deals with HRV-89. The experiment can be described thus: plaque reduction assay, rhinovirus serotype 89. The experiment is classed as cell-based, human rhinovirus (HRV). As to conditions: 50% plaque reduction, HeLa (Wisconsin) cells, read-out: MIC. As to the method:
as §1, §2, §3

Experiment [10] deals with HRV-2. In words: plaque reduction assay, rhinovirus serotype 2. Type of experiment: cell-based, human rhinovirus (HRV). As to conditions: 50% plaque reduction, HeLa (Wisconsin) cells, read-out: MIC. As to the method:
as §1, §2, §3

Experiment [11] concerns HRV-41. The experiment can be described thus: plaque reduction assay, rhinovirus serotype 41. Type of experiment: cell-based, human rhinovirus (HRV). The conditions noted are these: Enterovirus, HRV41, 50% plaque reduction, HeLa (Wisconsin) cells, read-out: MIC. As to the method:
as §1, §2, §3

In experiment [12] the test system is HRV-22. In words: plaque reduction assay, rhinovirus serotype 22. Type of experiment: cell-based, human rhinovirus (HRV). As to conditions: Enterovirus, HRV22, 50% plaque reduction, HeLa (Wisconsin) cells, read-out: MIC. Here is the method: as §1, §2, §3
Experiment [13] has as its system HRV-21. The experiment can be described thus: plaque reduction assay, rhinovirus serotype 21. As to conditions: Enterovirus, HRV21, 50% plaque reduction, HeLa (Wisconsin) cells, read-out: MIC. The experiment is classed as cell-based, human rhinovirus (HRV). As to the method:
as §1, §2, §3

The subject of experiment [14] is HRV-30. The experiment can be described thus: plaque reduction assay, rhinovirus serotype 30. Type of experiment: cell-based, human rhinovirus (HRV). As to conditions: Enterovirus, HRV30, 50% plaque reduction, HeLa (Wisconsin) cells, read-out: MIC. Here is the method: as §1, §2, §3
For experiment [15], the system named is HRV-1B. The experiment can be described thus: plaque reduction assay, rhinovirus serotype 1B. Type of experiment: cell-based, human rhinovirus (HRV). As to conditions: 50% plaque reduction, HeLa (Wisconsin) cells, read-out: MIC. Here is the method: as §1, §2, §3
Experiment [16] has as its system HRV-14. In words: plaque reduction assay, rhinovirus serotype 14. The experiment is classed as cell-based, human rhinovirus (HRV). As to conditions: 50% plaque reduction, HeLa (Wisconsin) cells, read-out: MIC. As to the method:
as §1, §2, §3

The test system of experiment [17] is HRV-50. The experiment can be described thus: plaque reduction assay, rhinovirus serotype 50. Type of experiment: cell-based, human rhinovirus (HRV). As to conditions: Enterovirus, HRV50, 50% plaque reduction, HeLa (Wisconsin) cells, read-out: MIC. Here is the method:
as §1, §2, §3

On to `Cc1cc(CCCCCOc2c(C)cc(-c3nc(C)no3)cc2C)on1` [2(b), 5-{5-[2,6-dimethyl-4-(3-methyl-1,2,4-oxadiazol-5-yl)phenoxy]pentyl}-3-methylisoxazole], for which, in experiment [1], the MIC50 is 0.053 µg/mL (≈ 0.149 µM) and the “MIC₈₀ (N) (Rhinovirus)” value was 0.42 (6) micrograms per milliliter.
On the same counts, the results for `Cc1cc(CCCOc2c(C)cc(-c3nc(C)no3)cc2C)on1` [3(b), 5-{3-[2,6-Dimethyl-4-(3-methyl-1,2,4-oxadiazol-5-yl)-phenoxy]propyl}-3-methylisoxazole] are 0.026 µg/mL (≈ 0.0794 µM) and 0.12 (15) micrograms per milliliter.
On the same counts, the results for `CCc1cc(CCCOc2c(C)cc(-c3nc(C)no3)cc2C)on1` [4(d), 5-{3-[2,6-Dimethyl-4-(3-methyl-1,2,4-oxadiazol-5-yl)-phenoxy]propyl}-3-ethylisoxazole] are 0.042 µg/mL (≈ 0.123 µM) and 0.15 (15) micrograms per milliliter.
Turning to `CCCc1cc(CCCOc2c(C)cc(-c3nc(C)no3)cc2C)on1` [5(e), 5-{3-[2,6-dimethyl-4-(3-methyl-1,2,4-oxadiazol-5-yl)phenoxy]propyl}-3-(n-propyl)isoxazole], in experiment [1], the MIC50 turned out to be 0.036 µg/mL (≈ 0.101 µM) and the “MIC₈₀ (N) (Rhinovirus)” value is recorded as 0.06 (7) micrograms per milliliter.
The matching figures for `Cc1cc(CCCOc2c(C)cc(-c3nnc(C)o3)cc2C)on1` [12(d), 5-{3-[2,6-Dimethyl-4-(5-methyl-1,3,4-oxadiazol-2-yl)-phenoxy]propyl}-3-methylisoxazole]: 0.054 µg/mL (≈ 0.165 µM) and 0.35 (6) micrograms per milliliter.
For the compound `Cc1cc(CCCCCOc2ccc(-c3nnco3)cc2)on1` [Example 1, 3-Methyl-5-{5-[4-(1,3,4-oxadiazol-2-yl)phenoxy]pentyl}-isoxazole, reference compound], in experiment [2], the EC50 was 0.05 µg/mL (≈ 0.16 µM). For the same compound, the “MIC₈₀ (N) (Rhinovirus)” value in experiment [1] is 2.56 (1) micrograms per milliliter.
In the case of `Cc1cc(CCCCCOc2c(C)cc(-c3noc(C)n3)cc2C)on1` [Example 6, 5-{5-[2,6-dimethyl-4-(5-methyl-1,2,4-oxadiazol-3-yl)phenoxy]pentyl}-3-methylisoxazole], in experiment [1], the MIC50 was found to be 0.018 µg/mL (≈ 0.0506 µM) and the “MIC₈₀ (N) (Rhinovirus)” value was 0.10 (5) micrograms per milliliter.
On to `Cc1cc(CCCOc2c(C)cc(-c3noc(C)n3)cc2C)on1` [Example 7, 5-{3-[2,6-Dimethyl-4-(5-methyl-1,2,4-oxadiazol-3-yl)phenoxy]propyl}-3-methylisoxasole], for which, in experiment [1], the MIC50 turned out to be 0.012 µg/mL (≈ 0.0367 µM) and the “MIC₈₀ (N) (Rhinovirus)” value is listed as 0.069 (13) micrograms per milliliter.
In the case of `CCc1cc(CCCOc2c(C)cc(-c3noc(C)n3)cc2C)on1` [Example 8(c), 5-{3-[2,6-dimethyl-4-(5-methyl-1,2,4-oxadiazol-3-yl)phenoxy]propyl}-3-ethylisoxazole], in experiment [1], the MIC50 is 0.017 µg/mL (≈ 0.0498 µM) and the “MIC₈₀ (N) (Rhinovirus)” value was 0.05 (6) micrograms per milliliter.
In the case of `CCCc1cc(CCCOc2c(C)cc(-c3noc(C)n3)cc2C)on1` [Example 9, 5-{3-[2,6-Dimethyl-4-(5-methyl-1,2,4-oxadiazol-3-yl)phenoxy]propyl}-3-propylisoxazole], in experiment [1], the MIC50 turned out to be 0.025 µg/mL (≈ 0.0703 µM) and the “MIC₈₀ (N) (Rhinovirus)” value was 0.04 (6) micrograms per milliliter.
Regarding `Cc1cc(CCCCCOc2c(Cl)cc(-c3nnco3)cc2Cl)on1` [Example 10(c), 5-{5-[2,6-Dichloro-4-(1,3,4-oxadiazol-2-yl)phenoxy]-pentyl}-3-methylisoxazole, reference compound], the EC50 in [3] was 1.28 µg/mL (≈ 3.35 µM); in experiment [4] it was 2.42 µg/mL (≈ 6.33 µM); in [5], 1.45 µg/mL (≈ 3.79 µM); in experiment [6] it was 7.06 µg/mL (≈ 18.5 µM); in [7], 1.92 µg/mL (≈ 5.02 µM); in experiment [8], 0.64 µg/mL (≈ 1.67 µM). Besides, the EC50 in experiment [2] stood at 2.24 µg/mL (≈ 5.86 µM); in experiment [9], 0.28 µg/mL (≈ 0.733 µM); in experiment [10] it was 0.41 µg/mL (≈ 1.07 µM); in [11], 2.76 µg/mL (≈ 7.22 µM); in experiment [12] it was 0.45 µg/mL (≈ 1.18 µM); in experiment [13] it was 0.24 µg/mL (≈ 0.628 µM). For the same compound, the EC50 in [14] worked out at 0.1 µg/mL (≈ 0.262 µM); in experiment [15] it was 0.53 µg/mL (≈ 1.39 µM); in experiment [16], 2.02 µg/mL (≈ 5.28 µM); in experiment [17] it was 0.091 µg/mL (≈ 0.238 µM). The MIC50 in experiment [1] is 0.25 µg/mL (≈ 0.654 µM). Further, the “MIC₈₀ (N) (Rhinovirus)” value in [1] is given as 0.91 micrograms per milliliter.
As to `Cc1cc(CCCCCOc2c(Cl)cc(-c3nnc(C)o3)cc2Cl)on1` [Example 11(c), 5-{5-[2,6-dichloro-4-(5-methyl-1,3,4-oxadiazol-2-yl)phenoxy]pentyl}-3-methylisoxazole], the EC50 was 0.57 µg/mL (≈ 1.44 µM) in experiment [3]; 0.7 µg/mL (≈ 1.77 µM) in experiment [4]; 0.44 µg/mL (≈ 1.11 µM) in experiment [5]; 0.46 µg/mL (≈ 1.16 µM) in experiment [6]; 0.42 µg/mL (≈ 1.06 µM) in [7]; 0.1 µg/mL (≈ 0.252 µM) in experiment [8]. Further, the EC50 came to 0.01 µg/mL (≈ 0.0252 µM) in experiment [9]; 0.016 µg/mL (≈ 0.0404 µM) in [10]; 99 µg/mL (≈ 250 µM) in experiment [11]; 0.018 µg/mL (≈ 0.0454 µM) in experiment [12]; 0.0092 µg/mL (≈ 0.0232 µM) in experiment [13]; 0.031 µg/mL (≈ 0.0782 µM) in experiment [14]. The values for the EC50 in experiment [15], in experiment [16] and in experiment [17] were 0.14 µg/mL (≈ 0.353 µM), 0.19 µg/mL (≈ 0.479 µM) and 0.041 µg/mL (≈ 0.103 µM), respectively. Moreover, the MIC50 in experiment [1] worked out at 0.14 µg/mL (≈ 0.353 µM). In experiment [1], the “MIC₈₀ (N) (Rhinovirus)” value was 0.46 (15) micrograms per milliliter.
As for `Cc1cc(CCCCCCCOc2ccc(-c3nnc(C)o3)cc2)on1` [Example 13, 3-Methyl-5-{7-[4-(5-methyl-1,3,4-oxadiazol-2-yl)phenoxy]-heptyl}isoxazole], in experiment [1], the MIC50 is 2.3 µg/mL (≈ 6.47 µM) and the “MIC₈₀ (N) (Rhinovirus)” value was 3.2 (2) micrograms per milliliter.
Regarding `Cc1cc(CCCCCOc2c(C)cc(-c3nnc(C)o3)cc2C)on1` [Example 14, 5-{5-[2,6-Dimethyl-4-(5-methyl-1,3,4-oxadiazol-2-yl)phenoxy]pentyl}-3-methylisoxazole], in [1], the MIC50 came to 0.34 µg/mL (≈ 0.957 µM) and the “MIC₈₀ (N) (Rhinovirus)” value is on record as 0.67 (2) micrograms per milliliter.
